This passage reports pest or weed control and inhibition of growth results from patent US10798941B2, “Microbiocidal oxadiazole derivatives” (SYNGENTA PARTICIPATIONS AG, priority 2016, dated 2020).

Read-outs that look alike come from different tables or passages of the source.

Assay [1] deals with Puccinia recondita f. Sp. Tritici. The assay is described as follows: Puccinia recondita f. sp. tritici / wheat / leaf disc preventative (brown rust). The format is in vivo. The note with it: foliar, 168 h, read-out: disease control. The procedure: Leaf disks or leaf segments of various plant species are cut from plants grown in a greenhouse. The cut leaf disks or segments are placed in multiwell plates (24-well format) onto water agar. The leaf disks are sprayed with a test solution before (preventative) or after (curative) inoculation. Compounds to be tested are prepared as DMSO solutions (max. 10 mg/ml) which are diluted to the appropriate concentration with 0.025% Tween20 just before spraying. The inoculated leaf disks or segments are incubated under defined conditions (temperature, relative humidity, light, etc.) according to the respective test system. A single evaluation of disease level is carried out 3 to 14 days after inoculation, depending on the pathosystem. Percent disease control relative to the untreated check leaf disks or segments is then calculated.
Wheat leaf segments cv. Kanzler were placed on agar in multiwell plates (24-well format) and sprayed with the formulated test compound diluted in water. The leaf disks were inoculated with a spore suspension of the fungus 1 day after application. The inoculated leaf segments were incubated at 19° C. and 75% relative humidity (rh) under a light regime of 12 hours light/12 hours darkness in a climate cabinet and the activity of a compound was assessed as percent disease control compared to untreated when an appropriate level of disease damage appears in untreated check leaf segments (7 to 9 days after application).
The following compounds at 200 ppm in the applied formulation give at least 80% disease control in this test when compared to untreated control leaf disks under the same conditions, which show extensive disease development.

Assay [2] deals with Glomerella Lagenarium (Colletotrichum Lagenarium). The assay is described as follows: Glomerella lagenarium (Colletotrichum lagenarium) liquid culture / cucumber / preventative (anthracnose). It is filed as cell-based. The note with it: Colletotrichum orbiculare, read-out: disease control. The procedure: Mycelia fragments or conidia suspensions of a fungus prepared either freshly from liquid cultures of the fungus or from cryogenic storage, are directly mixed into nutrient broth. DMSO solutions of the test compound (max. 10 mg/ml) are diluted with 0.025% Tween20 by a factor of 50 and 10 μl of this solution is pipetted into a microtiter plate (96-well format). The nutrient broth containing the fungal spores/mycelia fragments is then added to give an end concentration of the tested compound. The test plates are incubated in the dark at 24° C. and 96% relative humidity. The inhibition of fungal growth is determined photometrically after 2 to 7 days, depending on the pathosystem, and percent antifungal activity relative to the untreated check is calculated.
Conidia of the fungus from cryogenic storage are directly mixed into nutrient broth (PDB—potato dextrose broth). After placing a (DMSO) solution of test compound into a microtiter plate (96-well format), the nutrient broth containing the fungal spores is added.
The following compounds at 20 ppm in the applied formulation give at least 80% disease control in this test when compared to untreated control under the same conditions, which show extensive disease development.

[3] abbreviates: 200 ppm in the applied formulation, wheat leaf segments cv. Kanzler, preventative, inoculated 1 day after application, assessed 7 to 9 days after application, vs untreated.
Where [4] appears, read: 20 ppm in the applied formulation, liquid culture in PDB, 24° C., inhibition of growth measured photometrically 3 to 4 days after application, vs untreated.

Consider `COc1cc(Cl)cnc1OCc1cn(Cc2ccc(-c3noc(C(F)(F)F)n3)cc2)nn1` [Compound 1.29, 3-[4-[[4-[(5-chloro-3-methoxy-2-pyridyl)oxymethyl]triazol-1-yl]methyl]phenyl]-5-(trifluoromethyl)-1,2,4-oxadiazole], for which the pest or weed control at 200 ppm in assay [1] (setting [3]) was no less than 80%. For the same molecule, the inhibition of growth at 20 ppm in assay [2] (setting [4]) was no less than 80%.
Regarding `FC(F)(F)c1nc(-c2ccc(Cn3ccnc3-c3ccccc3)cc2)no1` [Compound 1.47, 3-[4-[(2-phenylimidazol-1-yl)methyl]phenyl]-5-(trifluoromethyl)-1,2,4-oxadiazole], the pest or weed control at 200 ppm in assay [1] (setting [3]) was no less than 80%. For the same molecule, the inhibition of growth at 20 ppm in assay [2] (setting [4]) was no less than 80%.
As for `FC(F)(F)c1nc(-c2ccc(Cn3c(C(F)(F)F)nc4ccccc43)cc2)no1` [Compound 1.48, 5-(trifluoromethyl)-3-[4-[[2-(trifluoromethyl)benzimidazol-1-yl]methyl]phenyl]-1,2,4-oxadiazole], in assay [1] (setting [3]), the pest or weed control at 200 ppm is no less than 80%. For the same molecule, the inhibition of growth at 20 ppm in assay [2] (setting [4]) was no less than 80%.
For the molecule `CC(=O)c1cn(Cc2ccc(-c3noc(C(F)(F)F)n3)cc2)c2ccccc12` [Compound 1.50, 1-[1-[[4-[5-(trifluoromethyl)-1,2,4-oxadiazol-3-yl]phenyl]methyl]indol-3-yl]ethanone], in assay [1], the pest or weed control at 200 ppm is no less than 80%. Further, the inhibition of growth at 20 ppm in assay [2] is no less than 80%.
Take `Cc1ccc2c(ccn2Cc2ccc(-c3noc(C(F)(F)F)n3)cc2)c1` [Compound 1.52, 3-[4-[(5-methylindol-1-yl)methyl]phenyl]-5-(trifluoromethyl)-1,2,4-oxadiazole]: the pest or weed control at 200 ppm in assay [1] (setting [3]) was no less than 80%. In addition, in assay [2] (setting [4]), the inhibition of growth at 20 ppm is no less than 80%.
As for `Cc1nccn1Cc1ccc(-c2noc(C(F)(F)F)n2)cc1` [Compound 1.53, 3-[4-[(2-methylimidazol-1-yl)methyl]phenyl]-5-(trifluoromethyl)-1,2,4-oxadiazole], in assay [1] (setting [3]), the pest or weed control at 200 ppm was no less than 80%.
Consider `COc1ccc2c(c1)c(C=O)cn2Cc1ccc(-c2noc(C(F)(F)F)n2)cc1` [Compound 1.57, 5-methoxy-1-[[4-[5-(trifluoromethyl)-1,2,4-oxadiazol-3-yl]phenyl]methyl]indole-3-carbaldehyde], for which the pest or weed control at 200 ppm in assay [1] (setting [3]) was no less than 80%. Besides, the inhibition of growth at 20 ppm in assay [2] (setting [4]) was no less than 80%.
For `N#CCc1nc2ccccc2n1Cc1ccc(-c2noc(C(F)(F)F)n2)cc1` [Compound 1.58, 2-[1-[[4-[5-(trifluoromethyl)-1,2,4-oxadiazol-3-yl]phenyl]methyl]benzimidazol-2-yl]acetonitrile], the pest or weed control at 200 ppm in assay [1] (setting [3]) is no less than 80%. Moreover, the inhibition of growth at 20 ppm in assay [2] (setting [4]) is no less than 80%.
`N#Cc1ccn(Cc2ccc(-c3noc(C(F)(F)F)n3)cc2)c1` [Compound 1.60, 1-[[4-[5-(trifluoromethyl)-1,2,4-oxadiazol-3-yl]phenyl]methyl]pyrrole-3-carbonitrile]: the pest or weed control at 200 ppm in assay [1] (setting [3]) was no less than 80%. In addition, in assay [2] (setting [4]), the inhibition of growth at 20 ppm was no less than 80%.
In the case of `CCc1nc2ccccc2n1Cc1ccc(-c2noc(C(F)(F)F)n2)cc1` [Compound 1.63, 3-[4-[(2-ethylbenzimidazol-1-yl)methyl]phenyl]-5-(trifluoromethyl)-1,2,4-oxadiazole], the pest or weed control at 200 ppm in assay [1] (setting [3]) is no less than 80%. For the same molecule, the inhibition of growth at 20 ppm in assay [2] (setting [4]) is no less than 80%.
As for `Fc1ccc(-c2nccn2Cc2ccc(-c3noc(C(F)(F)F)n3)cc2)cc1` [Compound 1.65, 3-[4-[[2-(4-fluorophenyl)imidazol-1-yl)methyl]phenyl]-5-(trifluoromethyl)-1,2,4-oxadiazole], in assay [1] (setting [3]), the pest or weed control at 200 ppm was no less than 80%. Moreover, the inhibition of growth at 20 ppm in assay [2] (setting [4]) was no less than 80%.
`FC(F)(F)c1nc(-c2ccc(Cn3c(-c4ccncc4)nc4ccccc43)cc2)no1` [Compound 1.73, 3-[4-[[2-(4-pyridyl)benzimidazol-1-yl]methyl]phenyl]-5-(trifluoromethyl)-1,2,4-oxadiazole]: the pest or weed control at 200 ppm in assay [1] (setting [3]) was no less than 80%. In assay [2] (setting [4]), the inhibition of growth at 20 ppm is no less than 80%.
On to `O=C1CCc2cn(Cc3ccc(-c4noc(C(F)(F)F)n4)cc3)cc21` [Compound 1.74, 2-[[4-[5-(trifluoromethyl)-1,2,4-oxadiazol-3-yl]phenyl]methyl]-5,6-dihydrocyclopenta[c]pyrrol-4-one], for which the pest or weed control at 200 ppm in assay [1] (setting [3]) was no less than 80%. Also, the inhibition of growth at 20 ppm in assay [2] (setting [4]) was no less than 80%.
With `COc1ccc2c(ccn2Cc2ccc(-c3noc(C(F)(F)F)n3)cc2)c1` [Compound 1.75, 3-[4-[(5-methoxyindol-1-yl)methyl]phenyl]-5-(trifluoromethyl)-1,2,4-oxadiazole], the pest or weed control at 200 ppm in assay [1] (setting [3]) is no less than 80%. For the same molecule, the inhibition of growth at 20 ppm in assay [2] (setting [4]) was no less than 80%.
Turning to `FC(F)(F)c1nc(-c2ccc(Cn3cnc4c(Cl)cccc43)cc2)no1` [Compound 1.94, 3-[4-[(4-chlorobenzimidazol-1-yl)methyl]phenyl]-5-(trifluoromethyl)-1,2,4-oxadiazole], in assay [1] (setting [3]), the pest or weed control at 200 ppm is no less than 80%. For the same molecule, in assay [2] (setting [4]), the inhibition of growth at 20 ppm is no less than 80%.
As for `FC(F)(F)c1nc(-c2ccc(Cn3cnc4cccc(Cl)c43)cc2)no1` [Compound 1.95, 3-[4-[(7-chlorobenzimidazol-1-yl)methyl]phenyl]-5-(trifluoromethyl)-1,2,4-oxadiazole], the pest or weed control at 200 ppm in assay [1] (setting [3]) is no less than 80%. For the same molecule, the inhibition of growth at 20 ppm in assay [2] (setting [4]) was no less than 80%.
As for `Cc1cn(Cc2ccc(-c3noc(C(F)(F)F)n3)cc2Cl)c(C)n1` [Compound 1.105, 3-[3-chloro-4-[(2,4-dimethylimidazol-1-yl)methyl]phenyl]-5-(trifluoromethyl)-1,2,4-oxadiazole], the pest or weed control at 200 ppm in assay [1] (setting [3]) was no less than 80%.
With `FC(F)(F)c1nc(-c2ccc(Cn3cnc(Br)c3)c(Cl)c2)no1` [Compound 1.107, 3-[4-[(4-bromoimidazol-1-yl)methyl]-3-chloro-phenyl]-5-(trifluoromethyl)-1,2,4-oxadiazole], in assay [1] (setting [3]), the pest or weed control at 200 ppm was no less than 80%. Also, the inhibition of growth at 20 ppm in assay [2] (setting [4]) is no less than 80%.
With `COC(=O)c1ncn(Cc2ccc(-c3noc(C(F)(F)F)n3)cc2Cl)n1` [Compound 1.108, methyl 1-[[2-chloro-4-[5-(trifluoromethyl)-1,2,4-oxadiazol-3-yl]phenyl]methyl]-1,2,4-triazole-3-carboxylate], the pest or weed control at 200 ppm in assay [1] (setting [3]) was no less than 80%. In addition, the inhibition of growth at 20 ppm in assay [2] (setting [4]) was no less than 80%.
Take `Cc1cn(Cc2ccc(-c3noc(C(F)(F)F)n3)cc2Cl)cn1` [Compound 1.109, 3-[3-chloro-4-[(4-methylimidazol-1-yl)methyl]phenyl]-5-(trifluoromethyl)-1,2,4-oxadiazole]: the pest or weed control at 200 ppm in assay [1] (setting [3]) is no less than 80%. Also, the inhibition of growth at 20 ppm in assay [2] (setting [4]) was no less than 80%.
With `FC(F)(F)c1nc(-c2ccc(Cn3ccnc3)c(Cl)c2)no1` [Compound 1.112, 3-[3-chloro-4-(imidazol-1-ylmethyl)phenyl]-5-(trifluoromethyl)-1,2,4-oxadiazole], the pest or weed control at 200 ppm in assay [1] (setting [3]) is no less than 80%. The inhibition of growth at 20 ppm in assay [2] (setting [4]) is no less than 80%.
`COC(=O)c1ncn(Cc2ccc(-c3noc(C(F)(F)F)n3)cc2F)n1` [Compound 1.122, methyl 1-[[2-fluoro-4-[5-(trifluoromethyl)-1,2,4-oxadiazol-3-yl]phenyl]methyl]-1,2,4-triazole-3-carboxylate]: in assay [1] (setting [3]), the pest or weed control at 200 ppm is no less than 80%. The inhibition of growth at 20 ppm in assay [2] (setting [4]) was no less than 80%.
For the molecule `Fc1cc(-c2noc(C(F)(F)F)n2)ccc1Cn1cccc2ccnc1-2` [Compound 1.125, 3-[3-fluoro-4-(pyrrolo[2,3-b]pyridin-7-ylmethyl)phenyl]-5-(trifluoromethyl)-1,2,4-oxadiazole], the pest or weed control at 200 ppm in assay [1] (setting [3]) was no less than 80%.
On the same count and under the same terms, the same measure for `Cc1nccn1Cc1ccc(-c2noc(C(F)(F)F)n2)cn1` [Compound 1.139, 3-[6-[(2-methylimidazol-1-yl)methyl]-3-pyridyl]-5-(trifluoromethyl)-1,2,4-oxadiazole]: no less than 80%; for `FC(F)(F)c1nc(-c2ccc(CN3CCOCC3)cc2)no1` [Compound 1.301, 4-[[4-[5-(trifluoromethyl)-1,2,4-oxadiazol-3-yl]phenyl]methyl]morpholine]: no less than 80%; for `C[C@@H]1CN(Cc2ccc(-c3noc(C(F)(F)F)n3)cc2)C[C@@H](C)O1` [Compound 1.308, (2R,6R)-2,6-dimethyl-4-[[4-[5-(trifluoromethyl)-1,2,4-oxadiazol-3-yl]phenyl]methyl]morpholine]: no less than 80%.
